Measurements as given in patent US7524975B2, “Peroxisome proliferator activated receptor ligand and process for producing the same” (Kaneka Corporation, priority 2001, dated 2009).

Key:
KK-Ay mouse [1] = experiment: Glucose tolerance test (sucrose loading) in KK-Ay mice; type: in vivo; details: for Blood glucose level: oral pioglitazone 20 mg/kg or Compound 2 100 mg/kg
Procedure: After the mixed feed was given for 1 week, the mice were fasted overnight and then subjected to a glucose tolerance test. […] To the non-additive group (control group), 0.5% CMC-Na solution was administered in an amount of 5 ml/kg. At a time of 30 minutes after administration, the mice were loaded with 2 g/kg of 40% sucrose solution. Before the sugar loading and at a time of 30 minutes, 1 hour and 2 hours after the sugar loading, a small amount of blood was collected from a mouse tail vein, and measured for its blood glucose level by a simple blood glucose measuring instrument Glutest Ace (Sanwa Kagaku Kenkyusho Co., Ltd.).

[2] = target: T1, mouse PPARγ ligand-binding site (Mus musculus, UniProt P37238); experiment: Measurement of PPARγ ligand activity (GAL4 chimera luciferase reporter in CV-1 cells); type: cell-based; details: CV-1 cells, 24 hours, specific activity relative to untreated control (DMSO) = 1.00
T1 construct: expressed in transfected cells; host or cells: CV-1 cells (African green monkey kidney)
T1 sequence (P37238 174-475 isoform P37238-2): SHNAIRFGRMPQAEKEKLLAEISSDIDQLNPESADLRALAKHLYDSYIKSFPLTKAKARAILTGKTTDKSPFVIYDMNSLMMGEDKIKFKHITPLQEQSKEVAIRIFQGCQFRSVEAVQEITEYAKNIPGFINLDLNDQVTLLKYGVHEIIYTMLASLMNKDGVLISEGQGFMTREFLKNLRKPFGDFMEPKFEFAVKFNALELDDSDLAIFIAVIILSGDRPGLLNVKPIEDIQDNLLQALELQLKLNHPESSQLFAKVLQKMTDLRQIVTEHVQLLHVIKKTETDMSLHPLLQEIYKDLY
Procedure: CV-1 cells (cultured cells derived from the kidney of a male African green monkey) were inoculated on a 96-well culture plate in a concentration of 6×10^3 cells/well and incubated at 37° C. in 5% CO2 for 24 hours. The medium used was DMEM (Dulbecco's Modified Eagle Medium: GIBCO) containing 10% FBS (fetal bovine serum), 10 ml/L penicillin and streptomycin solution (containing 5000 IU/ml and 5,000 μg/ml, respectively: GIBCO) and 37 mg/L ascorbic acid (Wako Pure Chemical Industries, Ltd.). […] 4xUASg-luc is a reporter plasmid comprising four GAL4 response sequences (UASg) integrated into a region upstream of a luciferase gene. At about 24 hours after transfection, the medium was exchanged with a sample-containing medium, and the cells were cultured for 24 hours (n=4). The sample-containing medium was prepared by dissolving a sample in dimethyl sulfoxide (DMSO) in an amount of 1/1000 based on the medium, while for the untreated control, DMSO in an amount of 1/1000 based on the medium was used in place of the sample. After the cells were washed with a Ca- and Mg-containing phosphate buffered physiological saline (PBS+), LucLite (Packard) was added thereto, and the intensity of luciferase luminescence was measured with a TopCount microplate scintillation/luminescence counter (Packard).
As the control group, pM (plasmid from which the PPARγ ligand-binding site gene was removed) was measured in place of pM-mPPARγ in the same manner as for the measurement group. For each sample, the ratio (measurement group/control group) of the average luminescence intensity of the measurement group (n=4) to that of the control group was calculated, and the specific activity relative to the activity of the untreated control was regarded as the PPARγ ligand activity of the sample.

KK-Ay mouse [3] = experiment: Effect on type 2 diabetes mellitus model mouse: blood glucose level during mixed-feed administration; type: in vivo; details: KK-Ay mice; for Blood glucose level: means±SE, n=5
Procedure: Using a KK-Ay mouse which is genetically obese and type 2 diabetic animal, the effect of Compound 2 on diabetes mellitus was evaluated.
Compound 2 was prepared in the same procedure as in Example 1 and added to the basal diet such that the content of Compound 2 in a final feed was 0.1%. On the day before administration and 4 days after administration, a small amount of blood was collected from a mouse tail vein, and measured for its blood glucose level by a simple blood glucose measuring instrument Glutest Ace (Sanwa Kagaku Kenkyusho Co., Ltd.).

[4] = 30 minutes after sugar loading (2 g/kg sucrose)
[5] = 1 hour after sugar loading (2 g/kg sucrose)
[6] = before sugar loading, fasted KK-Ay mice after 1 week mixed feed
[7] = 4 days after administration, in feed: pioglitazone 0.02%, Compound 2 0.1%

| Compound | Blood glucose level (KK-Ay mouse [1]; [4]) [mg/dL] | Blood glucose level (KK-Ay mouse [1]; [5]) [mg/dL] | Blood glucose level (KK-Ay mouse [1]; 2 hour after sugar loading (2 g/kg sucrose)) [mg/dL] | Increase in blood glucose levels after the sugar loading (in words) (KK-Ay mouse [1]; KK-Ay mice, 100 mg/kg oral) | Blood glucose level (KK-Ay mouse [1]; [6]) [mg/dL] | PPARγ ligand activity ([2]; added concentration 2 μg/ml) | PPARγ ligand activity ([2]; added concentration 5 μg/ml) | PPARγ ligand activity ([2]; added concentration 10 μg/ml) | Blood glucose level (KK-Ay mouse [3]; [7]) [mg/dL] | Blood glucose levels on the fourth day after the administration (in words) (KK-Ay mouse [3]; 0.1% in feed) | Blood glucose level (KK-Ay mouse [3]; before administration) [mg/dL] |
| --- | --- | --- | --- | --- | --- | --- | --- | --- | --- | --- | --- |
| COc1cc2oc(=O)c(-c3ccc(O)cc3O)cc2c(OC)c1CC=C(C)C [Compound 2, Glycyrin] | 225 ± 27 | 129 ± 8 | 100 ± 3 | statistically significantly inhibited a rapid increase in blood glucose levels after the sugar loading | 78 ± 4 | 2.81 | 3.34 | 3.67 | 278 ± 14 | statistically significantly reduced | 474 ± 27 |
| CCc1ccc(CCOc2ccc(CC3SC(=O)NC3=O)cc2)nc1 (stereo not shown) [Pioglitazone, pioglitazone, reference compound] | 158 ± 11 | 136 ± 5 |  |  | 89 ± 3 |  |  |  | 191 ± 6 |  | 486 ± 26 |
